This note sets out measurements from patent US10221167B2, “Hydroxyalkylamine- and hydroxycycloalkylamine-substituted diamine-arylsulfonamide compounds with selective activity in voltage-gated sodium channels” (Merck Sharp & Dohme Corp., priority 2015, dated 2019).

Test [1] concerns the target T1, human Nav1.5 channels stably expressed in HEK 293 cells (Homo sapiens, UniProt Q14524).
T1 construct: expressed in transfected cells
In words: IonWorks Quattro automated patch-clamp, Nav1.5 (selectivity ratio versus Nav1.7). It counts as cell-based. The following applies: selectivity for Nav1.7 over Nav1.5, inactivated state block. On the procedure: (§1) Compounds were tested on human Nav1.7 and Nav1.5 channels stably expressed in HEK 293 cells. […] Cells were sealed on a planar substrate using the Population Patch Plate (PPC) technology. Electrical access was obtained using both nystatin and amphotericin. A double-pulse protocol was used for the determination of IC50 values for inactivated state block. Nav1.7 and Nav1.5 expressing cells were voltage clamped at −100 mV and −110 mV, respectively. A depolarizing prepulse to −10 mV (Nav1.7) or −30 mV (Nav1.5) for 1000 ms followed by a 10 ms repolarization to −100 mV (Nav1.7) or −110 mV (Nav1.5) was given to generate fractional channel inactivation of ˜50%, followed by a 10 ms test pulse to −10 mV (Nav1.7) or −30 mV (Nav1.5) to measure peak current in control conditions and after compound addition. The following recording solutions were used (mM). External: 150 NaCl, 2 CaCl2, 5 KCl, 1 Mg Cl2, 10 HEPES, 12 Dextrose; internal: 120 CsF, 30 CsCl, 10 EGTA, 5 HEPES, 5 NaF, 2 MgCl2.
(§2) For all electrophysiology experiments, offline analysis was used to determine percent inhibition as a function of drug concentration. IC50 values were determined by fitting to the Hill equation.
(§3) The various compounds in Examples 1 through 4 and Tables 1 through 3 exemplified above were assayed for activity and selectivity using the foregoing IonWorks® technique. The results are reported in the following paragraph in a format expressing the identification of the compound with reference Example and compound (e.g. Ex 1-1 is Example 1, compound 1) followed by the observed potency in nM and the ratio of Nav1.7 potency:Nav 1.5 potency as described here. […]

The target in test [2] is T2, human Nav1.7 channels stably expressed in HEK 293 cells (Homo sapiens, UniProt Q15858).
T2 construct: expressed in transfected cells
T2 sequence (Q15858 whole entry): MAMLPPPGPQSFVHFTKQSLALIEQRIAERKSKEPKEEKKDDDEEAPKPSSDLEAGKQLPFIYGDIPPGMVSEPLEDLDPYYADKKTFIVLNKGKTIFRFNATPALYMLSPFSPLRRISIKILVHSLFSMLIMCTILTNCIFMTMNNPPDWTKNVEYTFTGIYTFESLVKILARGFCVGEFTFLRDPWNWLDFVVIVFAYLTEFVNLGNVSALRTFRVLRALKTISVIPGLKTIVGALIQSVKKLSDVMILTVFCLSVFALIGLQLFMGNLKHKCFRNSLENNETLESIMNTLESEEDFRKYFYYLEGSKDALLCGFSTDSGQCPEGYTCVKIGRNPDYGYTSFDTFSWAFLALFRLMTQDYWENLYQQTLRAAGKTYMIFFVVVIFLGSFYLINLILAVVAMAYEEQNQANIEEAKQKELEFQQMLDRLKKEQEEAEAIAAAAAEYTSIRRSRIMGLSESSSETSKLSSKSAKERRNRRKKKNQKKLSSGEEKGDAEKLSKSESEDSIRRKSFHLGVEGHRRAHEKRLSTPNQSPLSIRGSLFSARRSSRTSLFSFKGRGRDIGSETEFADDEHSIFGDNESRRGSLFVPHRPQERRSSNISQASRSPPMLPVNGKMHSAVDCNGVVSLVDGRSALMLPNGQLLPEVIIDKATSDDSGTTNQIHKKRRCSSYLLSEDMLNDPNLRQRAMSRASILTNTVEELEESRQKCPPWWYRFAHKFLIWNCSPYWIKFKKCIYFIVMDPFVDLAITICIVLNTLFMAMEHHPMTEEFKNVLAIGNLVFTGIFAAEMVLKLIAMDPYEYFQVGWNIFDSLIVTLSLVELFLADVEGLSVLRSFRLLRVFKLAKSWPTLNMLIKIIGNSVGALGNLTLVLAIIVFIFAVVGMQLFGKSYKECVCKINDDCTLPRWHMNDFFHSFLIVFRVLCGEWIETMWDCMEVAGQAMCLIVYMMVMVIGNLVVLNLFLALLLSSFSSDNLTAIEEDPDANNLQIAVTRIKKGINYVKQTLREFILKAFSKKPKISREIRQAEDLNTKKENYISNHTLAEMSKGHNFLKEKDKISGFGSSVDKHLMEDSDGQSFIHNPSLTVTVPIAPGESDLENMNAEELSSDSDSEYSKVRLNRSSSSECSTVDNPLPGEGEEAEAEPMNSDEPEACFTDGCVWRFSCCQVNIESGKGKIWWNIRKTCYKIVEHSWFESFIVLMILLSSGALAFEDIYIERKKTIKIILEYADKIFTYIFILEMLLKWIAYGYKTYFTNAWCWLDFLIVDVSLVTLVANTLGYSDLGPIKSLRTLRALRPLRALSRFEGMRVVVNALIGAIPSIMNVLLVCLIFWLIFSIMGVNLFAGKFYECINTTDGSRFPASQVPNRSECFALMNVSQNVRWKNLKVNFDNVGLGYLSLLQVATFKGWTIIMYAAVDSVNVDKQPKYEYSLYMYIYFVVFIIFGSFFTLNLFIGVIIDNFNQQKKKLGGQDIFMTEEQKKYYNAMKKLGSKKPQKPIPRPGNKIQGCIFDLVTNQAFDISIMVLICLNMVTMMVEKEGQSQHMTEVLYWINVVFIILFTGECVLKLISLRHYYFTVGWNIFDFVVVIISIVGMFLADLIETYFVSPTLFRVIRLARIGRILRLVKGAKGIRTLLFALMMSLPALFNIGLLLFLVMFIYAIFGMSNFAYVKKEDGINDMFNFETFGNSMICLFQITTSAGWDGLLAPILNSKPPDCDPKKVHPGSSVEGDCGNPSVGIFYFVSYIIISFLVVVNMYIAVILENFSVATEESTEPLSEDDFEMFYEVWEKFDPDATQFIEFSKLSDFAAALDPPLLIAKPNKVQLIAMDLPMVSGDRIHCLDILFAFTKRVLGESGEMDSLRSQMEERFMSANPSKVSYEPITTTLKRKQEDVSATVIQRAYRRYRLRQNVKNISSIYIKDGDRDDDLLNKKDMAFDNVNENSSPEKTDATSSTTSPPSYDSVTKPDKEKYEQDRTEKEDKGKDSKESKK
As to the kind of experiment: IonWorks Quattro automated patch-clamp, state-dependent inhibition of Nav1.7. The conditions noted are these: inactivated state block, double-pulse protocol, holding -100 mV, read-out: potency for the Nav 1.7 sodium ion channel (as measured by IonWorks). The test is classed as cell-based. On the procedure: as §1, §2, §3
(In general: Patch clamp records ionic current or voltage across a cell membrane.)

T1 sequence (Q14524 whole entry): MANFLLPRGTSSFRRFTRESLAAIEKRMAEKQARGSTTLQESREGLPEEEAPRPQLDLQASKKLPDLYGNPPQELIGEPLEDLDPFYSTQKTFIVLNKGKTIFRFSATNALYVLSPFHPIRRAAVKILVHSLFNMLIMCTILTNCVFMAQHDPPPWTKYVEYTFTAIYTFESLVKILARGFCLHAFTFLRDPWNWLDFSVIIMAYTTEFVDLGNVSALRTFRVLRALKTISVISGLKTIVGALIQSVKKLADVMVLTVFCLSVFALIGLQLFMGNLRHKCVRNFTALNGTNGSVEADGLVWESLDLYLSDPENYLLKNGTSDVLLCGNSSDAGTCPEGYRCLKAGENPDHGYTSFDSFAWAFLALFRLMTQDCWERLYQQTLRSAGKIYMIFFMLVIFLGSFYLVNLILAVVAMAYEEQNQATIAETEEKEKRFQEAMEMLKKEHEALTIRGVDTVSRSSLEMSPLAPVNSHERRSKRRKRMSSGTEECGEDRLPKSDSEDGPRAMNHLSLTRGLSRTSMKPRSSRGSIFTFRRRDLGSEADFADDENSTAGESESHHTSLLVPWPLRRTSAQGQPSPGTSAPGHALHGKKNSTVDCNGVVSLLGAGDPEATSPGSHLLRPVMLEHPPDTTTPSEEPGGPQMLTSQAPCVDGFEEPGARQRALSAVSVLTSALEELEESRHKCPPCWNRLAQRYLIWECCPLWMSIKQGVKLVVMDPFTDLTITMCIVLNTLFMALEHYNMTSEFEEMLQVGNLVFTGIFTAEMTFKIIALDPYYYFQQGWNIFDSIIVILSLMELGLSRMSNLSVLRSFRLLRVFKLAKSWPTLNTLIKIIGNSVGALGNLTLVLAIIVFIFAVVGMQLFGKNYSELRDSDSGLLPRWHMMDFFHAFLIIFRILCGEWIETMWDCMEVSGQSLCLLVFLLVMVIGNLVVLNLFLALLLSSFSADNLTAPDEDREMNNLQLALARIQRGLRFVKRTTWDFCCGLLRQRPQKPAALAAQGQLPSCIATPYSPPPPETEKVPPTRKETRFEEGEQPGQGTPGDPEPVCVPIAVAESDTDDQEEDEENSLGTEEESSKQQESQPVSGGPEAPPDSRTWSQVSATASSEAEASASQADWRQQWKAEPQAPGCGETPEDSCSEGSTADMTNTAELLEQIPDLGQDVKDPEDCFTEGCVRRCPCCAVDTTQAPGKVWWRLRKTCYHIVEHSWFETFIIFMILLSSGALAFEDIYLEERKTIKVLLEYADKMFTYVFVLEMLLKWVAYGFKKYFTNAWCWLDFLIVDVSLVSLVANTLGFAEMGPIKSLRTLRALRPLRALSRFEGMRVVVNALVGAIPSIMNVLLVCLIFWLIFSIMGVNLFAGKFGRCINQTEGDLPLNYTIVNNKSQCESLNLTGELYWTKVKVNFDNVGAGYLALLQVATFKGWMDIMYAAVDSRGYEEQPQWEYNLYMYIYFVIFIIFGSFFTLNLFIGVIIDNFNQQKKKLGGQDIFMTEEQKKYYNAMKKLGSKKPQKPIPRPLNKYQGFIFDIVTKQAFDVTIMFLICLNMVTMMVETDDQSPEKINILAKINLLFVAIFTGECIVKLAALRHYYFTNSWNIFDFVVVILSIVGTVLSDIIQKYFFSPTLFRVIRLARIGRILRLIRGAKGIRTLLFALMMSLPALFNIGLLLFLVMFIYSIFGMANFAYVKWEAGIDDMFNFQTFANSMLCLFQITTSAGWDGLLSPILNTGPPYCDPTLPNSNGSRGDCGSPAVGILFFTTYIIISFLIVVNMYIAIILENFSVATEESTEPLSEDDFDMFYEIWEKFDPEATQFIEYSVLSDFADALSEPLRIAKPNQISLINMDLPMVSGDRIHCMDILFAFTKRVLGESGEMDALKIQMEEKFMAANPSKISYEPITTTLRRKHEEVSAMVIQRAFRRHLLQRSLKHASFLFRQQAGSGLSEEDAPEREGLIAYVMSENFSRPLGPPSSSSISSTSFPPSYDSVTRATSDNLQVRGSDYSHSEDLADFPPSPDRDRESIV

Consider `NCC1(O)CN(CCCCNc2cc(F)c(S(=O)(=O)Nc3ncns3)cc2Br)C1` [EX 1-11, 4-((4-(3-(aminomethyl)-3-hydroxyazetidin-1-yl)butyl)amino)-5-bromo-2-fluoro-N-(1,2,4-thiadiazol-5-yl)benzenesulfonamide], for which the “ratio of Nav1.7 potency:Nav 1.5 potency” value in test [1] is at least 5000. The IC50 in test [2] is 6.6 nM.
As to `O=S(=O)(Nc1ncns1)c1cc(Cl)c(NCCCCNCC2(O)CNC2)cc1F` [EX 2-1, 5-chloro-2-fluoro-4-[(4-{[(3-hydroxyazetidin-3-yl)methyl]amino}butyl)amino]-N-1,2,4-thiadiazol-5-ylbenzenesulfonamide], in test [1], the “ratio of Nav1.7 potency:Nav 1.5 potency” value is reported as at least 2063. Moreover, in test [2], the IC50 was 16 nM.
`O=S(=O)(Nc1ncns1)c1cc(Cl)c(NCCCCNCCNCCO)cc1F` [EX 2-4, 5-chloro-2-fluoro-4-{[4-({2-[(2-hydroxyethyl)amino]ethyl}amino)butyl]amino}-N-1,2,4-thiadiazol-5-ylbenzenesulfonamide]: the “ratio of Nav1.7 potency:Nav 1.5 potency” value in test [1] is given as at least 943. Further, the IC50 in test [2] stood at 35 nM.
Taken in the same sequence, the figures for `O=S(=O)(Nc1ncc(F)s1)c1cc(Cl)c(NCCCCNCC2(O)CNC2)cc1F` [EX 2-6, 5-chloro-2-fluoro-N-(5-fluoro-1,3-thiazol-2-yl)-4-[(4-{[(3-hydroxyazetidin-3-yl)methyl]amino}butyl)amino] benzenesulfonamide] were at least 2357 and 14 nM.
For `O=S(=O)(Nc1ncc(F)s1)c1cc(Cl)c(NCCCCNCCNCCO)cc1F` [EX 2-9, 5-chloro-2-fluoro-N-(5-fluoro-1,3-thiazol-2-yl)-4-{[4-({2-[(2-hydroxyethyl)amino]ethyl}amino)butyl]amino} benzenesulfonamide], the “ratio of Nav1.7 potency:Nav 1.5 potency” value in test [1] is reported as at least 1138. Further, the IC50 in test [2] is 29 nM.
For `O=S(=O)(Nc1ncc(F)s1)c1cc(Cl)c(NCCCCN[C@H]2CNC[C@@H]2O)cc1F` [EX 2-16, 5-chloro-2-fluoro-N-(5-fluoro-1,3-thiazol-2-yl)-4-[(4-{[(3S,4S)-4-hydroxypyrrolidin-3-yl]amino}butyl)amino] benzenesulfonamide], in that order: at least 1031 and 32 nM.
Taken in the same sequence, the figures for `O=S(=O)(Nc1ncc(F)s1)c1cc(Cl)c(NCCCCNC[C@@H]2C[C@H](O)CN2)cc1F` [EX 2-21, 5-chloro-2-fluoro-N-(5-fluoro-1,3-thiazol-2-yl)-4-{[4-({[(2S,4S)-4-hydroxypyrrolidin-2-yl]methyl}amino)butyl]amino} benzenesulfonamide] were at least 344 and 32 nM.
Taken in the same sequence, the figures for `O=S(=O)(Nc1ncc(F)s1)c1cc(Cl)c(NCCCCNC[C@@H]2C[C@@H](O)CN2)cc1F` [EX 2-22, 5-chloro-2-fluoro-N-(5-fluoro-1,3-thiazol-2-yl)-4-{[4-({[(2S,4R)-4-hydroxypyrrolidin-2-yl]methyl}amino)butyl]amino} benzenesulfonamide] were at least 942 and 35 nM.
On to `NC[C@@H](CO)NCCCCNc1cc(F)c(S(=O)(=O)Nc2ncc(F)s2)cc1Cl` [EX 2-36, 4-[(4-{[(1S)-2-amino-1-(hydroxymethyl)ethyl]amino}butyl)amino]-5-chloro-2-fluoro-N-(5-fiuoro-1,3-thiazol-2-yl)benzenesutfonamide], for which the “ratio of Nav1.7 potency:Nav 1.5 potency” value in test [1] is on record as at least 1375. Besides, the IC50 in test [2] came to 24 nM.
As for `NC[C@@H](CO)NCCCCNc1cc(F)c(S(=O)(=O)Nc2ncns2)cc1Cl` [EX 2-37, 4-[(4-{[(1S)-2-amino-1-(hydroxymethyl)ethyl]amino}butyl)amino]-5-chloro-2-fluoro-N-1,2,4-thiadiazol-5-ylbenzenesulfonamide], the “ratio of Nav1.7 potency:Nav 1.5 potency” value in test [1] was at least 1222. The IC50 in test [2] was found to be 27 nM.
For `NC[C@H](CO)NCCCCNc1cc(F)c(S(=O)(=O)Nc2nccs2)cc1Cl` [EX 2-39, 4-[(4-{[(1R)-2-amino-1-(hydroxymethyl)ethyl)amino}butyl)amino]-5-chloro-2-fluoro-N-1,3-thiazol-2-ylbenzenesulfonamide], in that order: at least 550 and 60 nM.
For the molecule `NC[C@H](CO)NCCCCNc1cc(F)c(S(=O)(=O)Nc2ncns2)cc1Cl` [EX 2-41], the “ratio of Nav1.7 potency:Nav 1.5 potency” value in test [1] is at least 655. The IC50 in test [2] stood at 29 nM.
Taken in the same sequence, the figures for `O=S(=O)(Nc1ncns1)c1cc(Br)c(NCCCCN[C@@H]2CNC[C@H]2O)cc1F` [EX 2-44, 5-bromo-2-fluoro-4-((4-(((3R,4R)-4-hydroxypyrrolidin-3-yl)amino)butyl)amino)-N-(1,2,4-thiadiazol-5-yl)benzenesulfonamide] were at least 1300 and 25 nM.
Regarding `CC1(O)CN[C@H](CNCCCCNc2cc(F)c(S(=O)(=O)Nc3nccs3)cc2Cl)C1` (stereo partly drawn) [EX 3-1, 5-chloro-2-fluoro-4-((4-((((2S)-4-hydroxy-4-methylpyrrolidin-2-yl)methyl)amino)butyl)amino)-N-(thiazol-2-yl)benzenesulfonamide], in test [1], the “ratio of Nav1.7 potency:Nav 1.5 potency” value is at least 330. Further, the IC50 in test [2] is 100 nM.
